SMILES strings stand for the structures. pEC50: −log10 of the molar value. Active and inactive are the calls of the source. The rule behind the calls is not given here.

The first data set deals with Human immunodeficiency virus 1. The data set can be described thus: Reversal of HIV-1 latency in CD4+ T-lymphoid J-Lat cells contains HIV-1 long terminal repeats (LTR)-Tat-GFP assessed as reactivation measured after 48 hrs by flow cytometry. It is filed as functional, organism-based. The conditions noted are these: Human immunodeficiency virus 1, J-Lat 10.6, 48 h.
Turning to `COc1ccc(S(=O)(=O)Nc2ccc(Oc3ccc(F)cc3F)c(-c3ccc4nnc(C)n4c3)c2)cc1`, the negative logarithm of the EC50 (pEC50) (as a rule, the negative decadic logarithm of the EC50, by convention in mol/L) is 5.17.
As to `CCCS(=O)(=O)Nc1ccc(Oc2ccc(F)cc2F)c(-c2ccc3nnc(C)n3c2)c1`, the pEC50 was 5.27.
Still for that read-out and setting: with `Cc1nnc2ccc(-c3cc(NS(=O)(=O)c4ccc(Br)cc4)ccc3Oc3ccc(F)cc3F)cn12` the figure was less than 4.30.
`C=CS(=O)(=O)Nc1ccc(Oc2ccc(Cl)cc2F)c(-c2ccc3nnc(C)n3c2)c1`: the pEC50 is 5.70.
On the same count and under the same terms, with `Cc1nnc2ccc(-c3cc(NC(=O)CCCCCCC(=O)NO)ccc3Oc3ccc(F)cc3F)cn12` the figure was less than 4.30.
`CCS(=O)(=O)Nc1ccc(Oc2ccc(Cl)cc2F)c(-c2ccc3nnc(C)n3c2)c1`: the negative logarithm of the EC50 (pEC50) is 5.25.
Still for that read-out and setting: the same measure for `COC(=O)CCCCCCC(=O)Nc1ccc(Oc2ccc(Cl)cc2F)c(-c2ccc3nnc(C)n3c2)c1`: less than 4.30.
As for `Cc1nnc2ccc(-c3cc(NS(=O)(=O)c4ccccc4)ccc3Oc3ccc(F)cc3F)cn12`, the pEC50 is less than 4.30.
On the same count and under the same terms, with `COC(=O)CCCCCCC(=O)Nc1ccc(Oc2ccc(F)cc2F)c(-c2ccc3nnc(C)n3c2)c1` the figure was less than 4.30.
Same read-out and setting: the same measure for `CCC(=O)Nc1ccc(Oc2ccc(F)cc2F)c(-c2ccc3nnc(C)n3c2)c1`: 4.75.
As for `Cc1nnc2ccc(-c3cc(NC(=O)C4CC4)ccc3Oc3ccc(F)cc3F)cn12`, the pEC50 was less than 4.30.
For `Cc1nnc2ccc(-c3cc(NC(=O)CCCCCCC(=O)NO)ccc3Oc3ccc(Cl)cc3F)cn12`, the pEC50 was 4.87.
The same measure, in the same setting: with `COc1ccc(Br)cc1S(=O)(=O)Nc1ccc(Oc2ccc(F)cc2F)c(-c2ccc3nnc(C)n3c2)c1` the figure was less than 4.30; with `Cc1nnc2ccc(-c3cc(NS(=O)(=O)c4ccc(Cl)cc4)ccc3Oc3ccc(F)cc3F)cn12`, 4.75.

Tested on in another data set: not listed separately
Briefly: Cytotoxicity against human non-infected J-Lat A10.6 cells assessed as cell death by CCK8 assay. It is filed as toxicity, cell-based, J-Lat 10.6.
Conditions: not given
In the case of `COc1ccc(S(=O)(=O)Nc2ccc(Oc3ccc(F)cc3F)c(-c3ccc4nnc(C)n4c3)c2)cc1`, the cytotoxic concentration (CC50) (as a rule, the concentration giving 50% cytotoxicity) is greater than 50 µM.
On to `CCCS(=O)(=O)Nc1ccc(Oc2ccc(F)cc2F)c(-c2ccc3nnc(C)n3c2)c1`, for which the CC50 was 44.7 µM.
On the same count and under the same terms, with `Cc1nnc2ccc(-c3cc(NS(=O)(=O)c4ccc(Br)cc4)ccc3Oc3ccc(F)cc3F)cn12` the figure was 43.9 µM.
Same read-out and setting: with `C=CS(=O)(=O)Nc1ccc(Oc2ccc(Cl)cc2F)c(-c2ccc3nnc(C)n3c2)c1` the figure was 44.2 µM; with `Cc1nnc2ccc(-c3cc(NC(=O)CCCCCCC(=O)NO)ccc3Oc3ccc(F)cc3F)cn12`, greater than 50 µM.
As for `CCS(=O)(=O)Nc1ccc(Oc2ccc(Cl)cc2F)c(-c2ccc3nnc(C)n3c2)c1`, the CC50 was 12.3 µM.
The same measure, in the same setting: with `COC(=O)CCCCCCC(=O)Nc1ccc(Oc2ccc(Cl)cc2F)c(-c2ccc3nnc(C)n3c2)c1` the figure was greater than 50 µM; with `Cc1nnc2ccc(-c3cc(NS(=O)(=O)c4ccccc4)ccc3Oc3ccc(F)cc3F)cn12`, greater than 50 µM.
On the same count and under the same terms, with `COC(=O)CCCCCCC(=O)Nc1ccc(Oc2ccc(F)cc2F)c(-c2ccc3nnc(C)n3c2)c1` the figure was greater than 50 µM; with `CCC(=O)Nc1ccc(Oc2ccc(F)cc2F)c(-c2ccc3nnc(C)n3c2)c1`, greater than 50 µM; with `Cc1nnc2ccc(-c3cc(NC(=O)C4CC4)ccc3Oc3ccc(F)cc3F)cn12`, greater than 50 µM.
Same read-out and setting: the same measure for `Cc1nnc2ccc(-c3cc(NC(=O)CCCCCCC(=O)NO)ccc3Oc3ccc(Cl)cc3F)cn12`: 28.7 µM; for `COc1ccc(Br)cc1S(=O)(=O)Nc1ccc(Oc2ccc(F)cc2F)c(-c2ccc3nnc(C)n3c2)c1`: greater than 50 µM.
Regarding `Cc1nnc2ccc(-c3cc(NS(=O)(=O)c4ccc(Cl)cc4)ccc3Oc3ccc(F)cc3F)cn12`, the 50% cytotoxic concentration (CC50) is greater than 50 µM.

The subject of the next data set is Human immunodeficiency virus 1. Briefly: Reversal of HIV-1 latency in ACH-2 cell line contains complete HIV-1 provirus assessed as reactivation by measuring HIV-1 p24 antigen expression 5 uM measured after 48 hrs by ELISA. It is filed as functional, organism-based.
Conditions: not given
In general terms: In an ELISA, binding on a coated surface is turned into a signal by an enzyme label.
Consider `CCS(=O)(=O)Nc1ccc(Oc2ccc(Cl)cc2F)c(-c2ccc3nnc(C)n3c2)c1`, for which the result was Active.

The target of the next data set is Bromodomain-containing protein 4 (Homo sapiens) (UniProt O60885). Briefly: Inhibition of BRD4 BD1 domain (unknown origin) at 1 uM by HTRF assay.
Conditions: not given
On to `COc1ccc(S(=O)(=O)Nc2ccc(Oc3ccc(F)cc3F)c(-c3ccc4nnc(C)n4c3)c2)cc1`, for which the inhibition entry is “Active”.
On the same count and under the same terms, the same measure for `CCCS(=O)(=O)Nc1ccc(Oc2ccc(F)cc2F)c(-c2ccc3nnc(C)n3c2)c1`: “Active”; for `C=CS(=O)(=O)Nc1ccc(Oc2ccc(Cl)cc2F)c(-c2ccc3nnc(C)n3c2)c1`: “Active”; for `CCS(=O)(=O)Nc1ccc(Oc2ccc(Cl)cc2F)c(-c2ccc3nnc(C)n3c2)c1`: “Active”.
For the compound `Cc1nnc2ccc(-c3cc(NS(=O)(=O)c4ccccc4)ccc3Oc3ccc(F)cc3F)cn12`, the inhibition entry was “Active”.
On the same count and under the same terms, the same measure for `Cc1nnc2ccc(-c3cc(NS(=O)(=O)c4ccc(Cl)cc4)ccc3Oc3ccc(F)cc3F)cn12`: “Active”.

The target is the same in a further data set. Briefly: Inhibition of BRD4 BD2 domain (unknown origin) at 1 uM by HTRF assay.
Conditions: not given
A general note: Time-resolved FRET reads energy transfer from a long-lived donor to a nearby acceptor.
Consider `COc1ccc(S(=O)(=O)Nc2ccc(Oc3ccc(F)cc3F)c(-c3ccc4nnc(C)n4c3)c2)cc1`, for which the inhibition result is “Active”.
On the same count and under the same terms, with `CCCS(=O)(=O)Nc1ccc(Oc2ccc(F)cc2F)c(-c2ccc3nnc(C)n3c2)c1` the entry was “Active”; with `C=CS(=O)(=O)Nc1ccc(Oc2ccc(Cl)cc2F)c(-c2ccc3nnc(C)n3c2)c1`, “Active”.
Same read-out and setting: the same measure for `CCS(=O)(=O)Nc1ccc(Oc2ccc(Cl)cc2F)c(-c2ccc3nnc(C)n3c2)c1`: “Active”.
On the same count and under the same terms, the same measure for `Cc1nnc2ccc(-c3cc(NS(=O)(=O)c4ccccc4)ccc3Oc3ccc(F)cc3F)cn12`: “Active”; for `Cc1nnc2ccc(-c3cc(NS(=O)(=O)c4ccc(Cl)cc4)ccc3Oc3ccc(F)cc3F)cn12`: “Active”.

The record behind these values is ChEMBL document CHEMBL5357021, “Novel Triazolopyridine-Based BRD4 Inhibitors as Potent HIV-1 Latency Reversing Agents” (ACS Med Chem Lett, 2024).
